Results reported in patent US20050054582A1, “Para-amino benzoic acids as integrin antagonists” (priority 2001, published 2005).

Tested on: adhesion of Ramos cells to VCAM-1
Assay: Adhesion of Ramos cells to immobilized VCAM-1 (domains 1-3)
Type: cell-based
Settings: Homo sapiens, Ramos
Source text: In Vitro Assay: Adhesion of Ramos Cells to Immobilized VCAM-1 (Domains 1-3) Preparation of VCAM-1 (Extracellular Domains 1-3)
Complementary DNA (cDNA) encoding 7-domain form of VCAM-1 (GenBank accession #M60335) was obtained using Rapid-Screen™ cDNA library panels (OriGene Technologies, Inc) at Takara Gene Analysis Center (Shiga, Japan). The primers used were 5′-CCAAGGCAGAGTACGCAAAC-3′ (sense) and 5′-TGGCAGGTATTATTAAGGAG-3′ (antisense). PCR amplification of the 3-domain VCAM-1 cDNA was perform using Pfu DNA polymerase (Stratagene) with the following sets of primers: (U-VCAMd1-3) 5′-CCATATGGTACCTGATCAATTTAAAATCGAGACCACCCCAGAA-3′; (L-VCAMdl-3) 5-CCATATAGCAATCCTAGGTCCAGGGGAGATCTCAACAGTAAA-3′. PCR cycle was 94° C. for 45 sec, 55° C. for 45 sec, 72° C. for 2 min, repeating 15 cycles. After the purification of the PCR product, the fragment was digested with KpnI-AvrII. The digested fragment was ligated into pBluescript IISK(−) (Strategene), which was linearized by digesting with KpnI-XhoI. The ligation was followed by transformation to a Dam/Dcm methylase-free E. coli strain SCS110 (Strategene) to create the donor plasmid […]. To direct VCAM-1 molecule into the insect cell secretory pathway, the VCAM-1 coding sequence was fused to signal peptide sequence of honeybee melittin. The resulting melittin-VCAM fusion was placed in correct orientation to the baculovirus polyhedrin promoter. Baculovirus transfer vector containing first 3-domain form VCAM-1 (pH10) was constructed by ligation of 0.9 kb fragment from AvrII/Klenow/BclI digests of pH7 into SalI/Klenow/BamHI digests of pMelBacB (Invitrogen). Recombinant baculovirus was generated by using Bac-N-Blue™ Transfection kit (Invitrogen) according to the manufacture's instruction. The recombinant virus was amplified by infection to High-Five™ insect cells for 5-6 days, and virus titer was determined by plaque assay.
High-Five™ insect cells were pelleted in a 225 ml conical tube by centrifugation at 1000 rpm for 5 min. After discarding the supernatant, the pellet was resuspended in 1.5×10^9 pfu (MOI=5) of high-titer virus solution, followed by incubation for 1.5 hours at room temperature. The cells were pelleted again and washed once in fresh Express Five™ serum free medium. The cells were pelleted again and finally, resuspended in 200 ml of fresh Express Five TM medium, transferred to a 1,000 ml shaker flask, and incubated in a shaker at 27° C., 130 rpm, for 48 hours before the culture supernatant was collected. The purification of 3-domain form of VCAM-1 from the culture supernatant was performed by one-step anion exchange chromatography. Protein concentration was determined by using Coomassie protein assay reagent (Pierce) according to the manufacture's instruction.
Preparation of VCAM-1 Coated Microtiter Plates
Recombinant human VCAM-1 (extracellular domains 1-3) was dissolved at 1.0 μg/ml in PBS. Each well of the microtiter plates (Nalge Nunc International, Fluoronunc Cert, 437958) was coated with 100 μl of substrate or for background control with buffer alone for 15 hours at 4 C. After discarding the substrate solution, the wells were blocked using 150 μl per well of block solution (Kirkegaard Perry Laboratories, 50-61-01) for 90 minutes. The plate was washed with wash buffer containing 24 mM Tris-HCl (pH 7.4), 137 mM NaCl, […] and 2 mM MnCl2 just before addition of the assay.
In Vitro Assay using Ramos Cells
Preparation of Fluorescence Labeled Ramos Cells:
Ramos cells (American Type Culture Collection, Clone CRL-1596) were cultured in RPMI 1640 medium (Nikken Bio Medical Laboratory, CM1101) supplemented with 10% fetal bovine serum (Hyclone, A-1119-L), 100 U/ml penicilin (Gibco BRL, 15140-122) and 100 μg/ml streptomycin (Gibco BRL, 15140-122) in a humidified incubator at 37° C. with 5% CO2. […]

Q: With Cc1ccccc1NC(=O)Nc1ccc(CC(=O)NC(CC(C)C)C(=O)Nc2ccc(C(=O)O)cc2)cc1 (centres unmarked) [Example 37] as the compound, how does the IC50 read?
A: < 500 nM

Q: With COCCCN(CC(=O)Nc1ccc(C(=O)O)cc1)C(=O)Cc1ccc(NC(=O)Nc2ccccc2C)cc1 [Example 38] as the compound, how does the IC50 read?
A: < 500 nM

Q: For Cc1ccccc1NC(=O)Nc1ccc(CC(=O)N(CC(=O)Nc2ccc(C(=O)O)cc2)Cc2ccncc2)cc1 [Example 71, 4-{[N-{[4-({[(2-methylphenyl)amino]carbonyl}amino)phenyl]acetyl}-N-(4-yridinylmethyl)glycyl]amino}benzoic acid], which IC50 is on record?
A: < 500 nM

Q: For Cc1ccccc1NC(=O)Nc1ccc(CC(=O)N(CCc2c[nH]cn2)CC(=O)Nc2ccc(C(=O)O)cc2)cc1 [Example 72, 4-[(N-[2-(1H-imidazol-4-yl)ethyl]-N-{[4-({[(2-methylphenyl)amino]carbonyl}amino)phenyl]acetyl}glycyl)amino]benzoic acid], which IC50 is on record?
A: < 500 nM

Q: For Cc1ccccc1NC(=O)Nc1ccc(CC(=O)N(CCc2ccccn2)CC(=O)Nc2ccc(C(=O)O)cc2)cc1 [Example 73, 4-({N-{[4-({[(2-methylphenyl)amino]carbonyl}amino)phenyl]acetyl}-N-[2-(2-pyridinyl)ethyl]glycyl}amino)benzoic acid], which IC50 is on record?
A: < 500 nM

Q: Which IC50 does the source give for COc1cc(CCN(CC(=O)Nc2ccc(C(=O)O)cc2)C(=O)Cc2ccc3nc(Nc4ccccc4)oc3c2)cc(OC)c1 [Example 77, 4-({N-[(2-anilino-1,3-benzoxazol-6-yl)acetyl]-N-[2-(3,5-dimethoxyphenyl)-ethyl]glycyl}amino)benzoic acid] here?
A: < 500 nM

Q: Which IC50 does the source give for O=C(CN(CCCN1CCCC1)C(=O)Cc1ccc2nc(Nc3ccccc3)oc2c1)Nc1ccc(C(=O)O)cc1 [Example 84] here?
A: 500 to 2000 nM

Q: Which IC50 does the source give for COc1cccc(CCN(CC(=O)Nc2ccc(C(=O)O)cc2)C(=O)Cc2ccc(NC(=O)Nc3ccccc3C)cc2)c1 [Example 85, 4-[(N-[2-(3-methoxyphenyl)ethyl]-N-{[4-({[(2-methylphenyl)amino]-carbonyl}amino)phenyl]acetyl}glycyl)amino]benzoic acid] here?
A: < 500 nM

Q: Which IC50 does the source give for Cc1ccccc1NC(=O)Nc1ccc(CC(=O)N(CC(=O)Nc2ccc(C(=O)O)cc2)Cc2ccccc2)cc1 [Example 86, 4-[(N-benzyl-N-{[4-({[(2-methylphenyl)amino]carbonyl}amino)phenyl]-acetyl}glycyl)amino]benzoic acid] here?
A: < 500 nM

Q: For COc1cccc(CCN(CC(=O)Nc2ccc(C(=O)O)cc2)C(=O)Cc2ccc3nc(Nc4ccccc4)oc3c2)c1 [Example 87, 4-({N-[(2-anilino-1,3-benzoxazol-6-yl)acetyl]-N-[2-(3-methoxyphenyl)ethyl]-glycyl}amino)benzoic acid], which IC50 is on record?
A: < 500 nM

Q: For Cc1ccccc1NC(=O)Nc1ccc(CC(=O)N[C@@H](Cc2ccccc2)C(=O)Nc2ccc(C(=O)O)cc2)cc1 [Example 88, 4-[(N-{[4-({[(2-methylphenyl)amino]carbonyl}amino)phenyl]acetyl}-L-phenylalanyl)amino]benzoic acid], which IC50 is on record?
A: < 500 nM

Q: With O=C(Cc1ccc2nc(Nc3ccccc3)oc2c1)N[C@@H](Cc1ccccc1)C(=O)Nc1ccc(C(=O)O)cc1 [Example 89, 4-({N-[(2-anilino-1,3-benzoxazol-6-yl)acetyl]-L-phenylalanyl}amino)benzoic acid] as the compound, how does the IC50 read?
A: < 500 nM

Q: For Cc1ccccc1NC(=O)Nc1ccc(CC(=O)N[C@@H](Cc2ccc(Br)cc2)C(=O)Nc2ccc(C(=O)O)cc2)cc1 [Example 90, 4-[(4-bromo-N-{[4-({[(2-methylphenyl)amino]carbonyl}amino)phenyl]-acetyl}-L-phenylalanyl)amino]benzoic acid], which IC50 is on record?
A: < 500 nM

Q: With O=C(Cc1ccc2nc(Nc3ccccc3)oc2c1)N[C@@H](Cc1ccc(Br)cc1)C(=O)Nc1ccc(C(=O)O)cc1 [Example 91] as the compound, how does the IC50 read?
A: 500 to 2000 nM

Q: For O=C(CN(Cc1ccccc1)C(=O)Cc1ccc2nc(Nc3ccccc3)oc2c1)Nc1ccc(C(=O)O)cc1 [Example 92], which IC50 is on record?
A: 500 to 2000 nM

Tested on: not given
Assay: not given
Settings: not given

Q: Which melting point does the source give for Cc1ccccc1NC(=O)Nc1ccc(CC(=O)NC(CC(C)C)C(=O)Nc2ccc(C(=O)O)cc2)cc1 (centres unmarked) [Example 37] here?
A: 219 to 223 °C

Q: Which melting point does the source give for COCCCN(CC(=O)Nc1ccc(C(=O)O)cc1)C(=O)Cc1ccc(NC(=O)Nc2ccccc2C)cc1 [Example 38] here?
A: 210 to 218 °C
